# Source: US20060008800A1, “Unc-13 in the modulation of neurotransmission and secretion events” (priority 2002, published 2006)
# Entries after “also recorded” stand apart in the source; their conditions may differ.
# Key:
# Calmodulin [1] = target: Calmodulin (Homo sapiens, UniProt P0DP23); experiment: Tryptophane fluorescence emission of peptides as reporter for Calmodulin binding; conditions: 10 μM peptide; for binding of Ca^2+/Calmodulin: excess calcium
# Method: FIG. 23: Tryptophane fluorescence emission spectra of peptides reflecting the Calmodulin binding site of rat Munc13-1 and ubMunc13-2. 10 μM of each peptide were measured in NH4Acetate 0.25 M, 1 mM EGTA. Excitation was at 290 nm.
# The Excitation shutter was adjusted to 1 nm bandwith, the emission shutter to 8 nm bandwidth. Pathlenght was 3 mm. All measurements were carried out at room temperature. The exact sequences of each peptide are given in the text. […] In case of the Munc13-1 peptide, Calcium independent binding is also observed, while the binding of Munc13-2 peptides strictly requires Ca2+ for binding.
# The tryptophane fluorescence of the peptides was used as a reporter for Calmodulin binding in an experimental setup that was essentially identical to the experiments described elsewhere. (O'Neil et al.). Excitation of 10 μM solutions of the peptides in 0.25 M NH4Acetate pH 8 and 1 mM EGTA at 290 nm (bandwidth 1 nm) produced a maximum in the emission (bandwidth 8 nm) of both peptides at 355 nm. […] The same experiment was performed with the peptide derived of ubMunc13-2. […] In view of the evolutionarily conservation of the motif, other members of the protein family are likely to be Calmodulin targets, too.
# hippocampal neurons [2] = experiment: α-latrotoxin induced mEPSC/mIPSC activity; type: cell-based, mouse
# Method: (§1) Microisland culture preparation was performed according to Bekkers and Stevens (1991). The extracellular medium contained (mM): NaCl, 167; KCl, 2.4; HEPES, 10; glucose, 10; CaCl2, 4; MgCl2, 4 (340 mOsm, pH 7.3). Solutions were applied and recordings were performed as described in Rosenmund (1995). To examine synaptically activated currents, experiments were performed using recurrent synapses (autapses) or only single autaptic neuroeses on microisland cultures at room temperature (=24° C.). Pipette solutions included (mM): KCl, 120, or K-Gluconate, 125; HEPES, 10; EGTA, 1; MgCl2, 4.6; Na4ATP, 4; Creatinephosphate, 15; creatinephosphokinase 50 U/ml (320 mOsm, pH 7.3). Wild type and Munc13-1 deficient glutamatergic hippocampal neurons were used to study the characteristics of Munc13-1 and Munc13-1 independent synapses. For these purposes, individual neurons grown on microisland beds of glial cells (Bekkers, 1991) were employed. In this autaptic culture system, where isolated nerve cells make multiple synaptic contacts, so called autapses, with their own dendritic trees, spontaneous transmitter release, release of the readily releasable vesicle pool induced by hypertonic solutions, and action potential evoked release arise from the same synapse population and can be measured readily with patch clamp techniques. Autaptic responses were obtained after brief (1-2 ms) somatic depolarization. This induces an unclamped action potential that is followed by a postsynaptic response with a delay of 2-4 ms. Excitatory, glutamatergic and inhibitory, GABAergic synaptic currents were distinguished by their characteristic pharmacological and kinetic properties. Excitatory glutamatergic cells were mainly characterized because the differential equipment of presynaptic terminals formed by the same axon with Munc13 priming factors is not apparent in GABAergic neurons.
# Given that neither action potentials nor hypertonic stimuli successfully evoked synaptic transmission and no mPSCs were detectable in Munc13-1/2 double deficient cells, it is possible that postsynaptic development is impaired in mutant cells. To test this directly, the spider toxin α-latrotoxin was used which allows to partially circumvent the need for priming factors in vesicular release (Augustin, 1999b). […] The average amplitude of these events was 22.7±2.4 pA (FIG. 5B). Both, mEPSC frequency and amplitude values are similar to wild type values (not shown).
# [3] = tested on: Munc13-1 deficient hippocampal neurons; experiment: EPSC augmentation following high frequency action potential trains in Munc13-1 deficient, Munc13-2 dependent neurons; type: cell-based, mouse
# Calmodulin [4] = target: T1, Calmodulin (Rattus norvegicus, UniProt P0DP29); experiment: Cosedimentation of Calmodulin from rat brain synaptosome extract with GST fusion proteins; type: binding; conditions: for Calmodulin binding in cosedimentation: 15 μg fusion protein, 3 mM Ca
# T1 construct: from tissue; host or cells: rat brain synaptosomes, extracted with 1% Igepal
# Method: GST fusion proteins containing the Calmodulin binding sites of rat Munc13-1 and ubMunc13-2 as well as GST alone were expressed in bacteria, purified and adsorbed onto glutathione beads in equal amounts for subsequent use in cosedimentation assays with rat brain synaptosome extract. Proteins that bound to the immobilized GST fusion proteins were analyzed by SDS-PAGE and immunoblotting with a specific Calmodulin antibody. Calmodulin binds specifically to wt GST-Munc13-1 (445-567) and GST-ubMunc13-2 (372-494). Calmodulin binding is completely abolished by the point mutations in the conserved tryptophanes (Position 1 in the alignment figure x).
# Such a tool is a point mutation in a Munc13 protein that abolishes Calmodulin binding. On basis of the evolutionarily conservation of the tryptophane residues (FIG. 22), and since these hydrophobic residues make contact to Calmodulin, we created expression constructs that contain W464R mutation in case of Munc13-1 and a W387R mutation in case of ubMunc13-2. The effect of these mutations on Calmodulin binding was determined in cosedimentation experiments (FIG. 24). GST-tagged fragments of Munc13-1 (aa 445-567) or ubMunc13-2 (aa 372494) were expressed in bacteria and purified according to standard protocols. 15 μg of each expressed fusion protein were used to test for Calmodulin binding from 2 ml of a rat brain synaptosome extract. Rat brain synaptosomes were extracted with Igepal (1%) at a protein concentration of 2 mg/ml in a buffer containing Tris 50 mM pH 8, NaCl 150 mM, EGTA 1 mM and a cocktail of protease inhibitors. The cosedimentation experiment was performed as described prebviously (Betz, Neuron 30 […] 183-196).
# hippocampal neurons [5] = experiment: β-phorbol ester induced potentiation of evoked synaptic currents in autaptic neuron cultures (patch clamp); type: cell-based, mouse; conditions: for effect of PKC inhibitor on β-PE induced increase/potentiation of evoked EPSCs: 3 μM inhibitor, 1 μM PDBU
# Method: as §1
# Design of and infection with Semliki Forest Virus was done according to published procedures (Betz, 2001; Ashery, 2000). Cells were measured 22-26 h after infection.
# Routinely, cells from Munc13-1^H567K/Munc13-1^H567K mutants were analyzed 12-20 day after plating and compared to wild type control cells obtained from littermates. In some experiments we employed Munc13-1/Munc13-2 double deficient neurons as model cells to study the characteristics of the Munc13-1^H567K variant in comparison to wild type Munc13-1 following overexpression using the Semliki-Forest-Virus system. In contrast to Munc13-1 deficient glutamatergic hippocampal neurons, which still show measurable glutamate release (10% of wild type levels; Augustin, 1999b), double homozygous Munc13-1/Munc13-2 deletion mutant neurons are characterized by a complete lack of spontaneous and evoked transmitter release but can be rescued by reintroduction of Munc13 proteins. This rescue approach was persued in Munc13-1/Munc13-2 double mutant neurons instead of breeding the Munc13-1^H567K/Munc 3-1^H567K mutation into the Munc13-2 deletion mutant background because it was much faster and allowed the direct comparison of additional mutant (Betz, 2001) and wild type Munc13-1 variants in the same cultures. Autaptic responses were obtained after brief (1-2 ms) somatic depolarization. This induces an unclamped action potential that is followed by a postsynaptic response with a delay of 2-4 ms. Excitatory, glutamatergic synaptic currents were identified by their characteristic pharmacological and kinetic properties.
# [6] = 1 nM, Munc13-1/2 double deficient neurons
# [7] = cocktail of phosphatase inhibitors: cypermethrin 1 nM, calyculin A 10 μM, cyclosporine A 1 μM
compound,measurement,setting,value
crakanwlrafnkvrmqlqear (CRAKANWLRAFNKVRMQLQEAR) [Munc13-1 derived peptide],calcium dependence of Calmodulin binding,Calmodulin [1],partially Ca2+ independent binding
same,emission spectrum change on addition of Apocalmodulin (Calcium-free Calmodulin),"Calmodulin [1]; equimolar Apocalmodulin, 1 mM EGTA",pronounced blue shift and slight intensity increase
same,binding of Ca^2+/Calmodulin,Calmodulin [1],tighter binding
α-latrotoxin,mEPSC amplitude,hippocampal neurons [2]; [6],25.6±2.6 pA
same,mEPSC-like event frequency,hippocampal neurons [2]; [6],0.074±0.024 Hz
same,average mEPSC amplitude,"hippocampal neurons [2]; 1 nM, Munc13-2 single mutant control neurons",22.7±2.4 pA
same,mEPSC frequency,"hippocampal neurons [2]; five minutes following 60 s application of 1 nM, Munc13-2 single mutant control neurons",23.4±3.9 Hz
C/C1=C/C(=O)O[C@@H]2C[C@@H](CC[C@H](C)/C=C\CC1)O[C@@](O)([C@@H]1CSC(=O)N1)C2 [latrunculin B],effect on augmentation,[3]; 10 μM,ineffective in blocking augmentation; also recorded: failed to affect augmentation
"GSTubMunc13-2 (aa 372-494): GST-tagged fragment of rat ubMunc13-2 (aa 372-494) containing the Calmodulin binding site, expressed in bacteria",Calmodulin binding in cosedimentation,Calmodulin [4],robustly bound
CC1(C)C(C=C(Cl)Cl)C1C(=O)OC(C#N)c1cccc(Oc2ccccc2)c1 (stereo not drawn) [cypermethrin],effect on augmentation,[3]; [7],ineffective in blocking augmentation; also recorded: did not alter augmentation
C=C1[C@@H](O)[C@@H]2O[C@]3(CC[C@H](/C=C/[C@@H](C)[C@@H]4CC(C)=C[C@@]5(O[C@H](C[C@@](C)(O)C(=O)O)CC[C@H]5O)O4)O3)CC[C@H]2O[C@@H]1[C@@H](O)C[C@H](C)[C@H]1O[C@@]2(CCCCO2)CC[C@H]1C [okadaic acid],effect on augmentation,"[3]; 1 μM, alone",unable to block augmentation; also recorded: did not alter augmentation
NS(=O)(=O)c1cccc2c1c([N+](=O)[O-])cc1nc(O)c(O)nc12 [NBQX],effect on α-latrotoxin induced mEPSC signals,hippocampal neurons [2]; Munc13-2 deficient and Munc13-1/2 double deficient neurons,blocked
CN[C@@H]1C[C@H]2O[C@@](C)([C@@H]1OC)n1c3ccccc3c3c4c(c5c6ccccc6n2c5c31)C(=O)NC4 [staurosporine],effect on augmentation,[3]; 100 nM,failed to suppress augmentation
"GSTMunc13-1 (aa 445-567): GST-tagged fragment of rat Munc13-1 (aa 445-567) containing the Calmodulin binding site, expressed in bacteria",calcium dependence of Calmodulin binding in cosedimentation,Calmodulin [4],partially independent of Ca^2+
same,Calmodulin binding in cosedimentation,Calmodulin [4],robustly bound
cqarahwfravtkvrlqlqeis (CQARAHWFRAVTKVRLQLQEIS) [peptide derived of ubMunc13-2],calcium dependence of Calmodulin binding,Calmodulin [1],absolutely dependent on the presence of calcium
same,binding of Ca^2+/Calmodulin,Calmodulin [1],bound
COc1ccc2c(c1)c(C1=C(c3c[nH]c4ccccc34)C(=O)NC1=O)cn2CCCN(C)C [GÖ 6983],β-PE induced increase in evoked EPSCs,"hippocampal neurons [5]; 1 μM PDBU after preincubation for 2 min and in the presence of 3 μM GÖ 6983, wild type neurons",150±6 % of baseline values
same,effect of PKC inhibitor on β-PE induced increase/potentiation of evoked EPSCs,hippocampal neurons [5]; wild type neurons,had no effect
CN(C)CCCn1cc(C2=C(c3c[nH]c4ccccc34)C(=O)NC2=O)c2ccccc21 [bisindolylmaleimide I],potentiation of evoked EPSCs by 1 μM PDBU after bisindolylmaleimide I pretreatment,hippocampal neurons [5],73±8.3%
same,effect of PKC inhibitor on β-PE induced increase/potentiation of evoked EPSCs,hippocampal neurons [5]; wild type neurons,does not prevent
same,reduction of evoked EPSC responses (rundown),"hippocampal neurons [5]; 3 μM, four minute application period, wild type neurons",41±11%
COC[C@@H]([C@H](O)[C@H](O)C(=O)NCC[C@H](C)c1nc(/C=C/C[C@@H]2O[C@]3(C[C@@H](O)[C@@H]2C)O[C@H]([C@H](C[C@H](O)[C@H](C)[C@H](O)[C@H](C)/C=C(C)/C(C)=C/C=C/C(C)=C\C#N)OC)[C@H](OP(=O)(O)O)C3(C)C)co1)N(C)C [calyculin A],effect on augmentation,[3]; [7],did not alter augmentation
same,effect on augmentation,"[3]; cocktail of phosphatase inhibitors: cypermethrin 1 nM, calyculin A 10 μM, cyclosporine A 1 μM, listed as calyculinA",ineffective in blocking augmentation
CC(=O)OCOC(=O)CN(CCOCCOCCN(CC(=O)OCOC(C)=O)CC(=O)OCOC(C)=O)CC(=O)OCOC(C)=O [EGTA-AM],EPSC augmentation,"[3]; 10 Hz train, pretreatment 50 μM, 20 min",2.0±0.4 fold
same,maximal EPSC augmentation,"[3]; 40 Hz train, pretreatment 50 μM, 20 min",11.0±1.5 fold
same,augmentation in frequency-augmentation profile,"[3]; frequencies below 40 Hz, pretreatment 50 μM, 20 min",strongly reduced
